# System: proNGF
# Test: proNGF ELISA of culture supernatants of osteocyte-like cultures treated with rhTNF and PPS
# Format: cell-based, human
# From the text: In order to maximise the clinical relevance of the findings from this study, the effects of PPS were to be tested on osteocyte-like cultures derived by differentiation in vitro for a period of 28 days from cells isolated from the subchondral bone of the proximal tibia of three patients with advanced knee OA who underwent total knee arthroplasty (TKA) surgery (KOA: Group 1). As a comparator group, cells isolated from the proximal femur of three patients who underwent total hip arthroplasty (THA) for neck of femur fracture (NOF: Group 2), were similarly differentiated and tested. […]
# Cryopreserved cells from each donor (all at passage 0 or 1) were thawed and cultured for 10d in T75 cm^2 tissue culture flasks. Once confluent, cells were removed by collagenase/dispase digestion, washed by centrifugation, counted and adjusted to 5×10^5 cells/mL. […]
# To examine further the effects of PPS on NGF expression, osteocyte-like cultures derived from three KOA and three NOF donor osteoblasts were treated after 3 days pre-treatment with differing concentrations of PPS, with rhTNFα in the absence or presence of the pre-treatment concentration of PPS. […] Therefore, in this study proNGF levels were also measured in the treated supernatants, as described in Materials and Methods.
substance,measurement,setting,value
Sodium Pentosan Polysulfate [PPS],effect of rhTNF on proNGF secretion,"KOA and NOF cultures, rhTNFα 1 ng/mL 48 h after 3 days PPS pre-treatment, all PPS concentrations tested",strongly reversed
same,basal proNGF secretion,"all donors' cells (KOA and NOF), all PPS concentrations tested (1, 5, 50 μg/mL)",strongly suppressed

# From patent US11752169B2, “Treatment of pain with polysulfated polysaccharides” (PARADIGM BIOPHARMACEUTICALS LTD., priority 2018, dated 2023)
